Data published in patent publication US11840686B2, “Modulation of prekallikrein (PKK) expression” (Ionis Pharmaceuticals, Inc., priority 2013, dated 2023).
Strand notation (5' to 3'): a small letter for the sugar, then the base; units joined by * are phosphorothioate-linked, units joined directly phosphodiester-linked; [ ] holds rarer units or linkages, { } end groups; capitals alone tell only the bases. e = 2'-O-(2-methoxyethyl) (MOE); [5mC] = 5-methylcytosine; d = 2'-deoxy (DNA)

system: human PKK mRNA; assay: Antisense inhibition of human PKK mRNA in HepaRG cells, 5,000 nM (Example 2); assay type: cell-based; conditions: HepaRG cells, 5,000 nM antisense oligonucleotide, human PKK mRNA; Table 18
Summary of the method: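 HepaRG cells, 20,000 per well, were electroporated with 5,000 nM MOE gapmer (phosphorothioate, 5-methylcytosine) and incubated about 24 hours. PKK mRNA was quantified by qRT-PCR with primer probe set RTS3454, normalized to RIBOGREEN total RNA, and expressed as percent inhibition versus untreated controls.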

Row | Substance | % inhibition
1 | 548720 (DNA eT*eG*eT*dA*d[5mC]*dT*dA*dG*dT*dT*dT*d[5mC]*d[5mC]*eT*eA*eT*eA; antisense) [compound 548720] | 0%

same assay, conditions: HepaRG cells, 5,000 nM antisense oligonucleotide; 5-10-5 gapmers; Table 16

Row | Substance | % inhibition
2 | 547710 (antisense eT*eG*e[5mC]*eG*eG*dT*dT*dA*dT*dA*dT*dG*dG*dG*d[5mC]*eT*eG*eA*eA*eG) [compound 547710] | 85%
3 | 546969 (eA*eT*e[5mC]*e[5mC]*eA*dA*d[5mC]*d[5mC]*dT*d[5mC]*dT*d[5mC]*dT*d[5mC]*d[5mC]*e[5mC]*eT*eA*eT*e[5mC]; antisense) [compound 546969] | 53%
4 | 547711 (antisense e[5mC]*e[5mC]*eT*eT*eT*dA*dG*d[5mC]*d[5mC]*dA*d[5mC]*dT*d[5mC]*d[5mC]*dT*e[5mC]*eT*eT*eG*e[5mC]) [compound 547711] | 45%
5 | 546970 (eG*e[5mC]*e[5mC]*e[5mC]*eA*dA*dG*d[5mC]*d[5mC]*dT*dA*d[5mC]*dA*dT*dG*e[5mC]*eA*eT*eA*e[5mC]; antisense) [compound 546970] | 61%

same assay, conditions: HepaRG cells, 5,000 nM antisense oligonucleotide; 5-10-5 gapmers; Table 17

Row | Substance | % inhibition
6 | 547071 (eG*e[5mC]*eA*eG*e[5mC]*d[5mC]*d[5mC]*d[5mC]*d[5mC]*d[5mC]*dA*dG*dA*dA*dA*eT*e[5mC]*e[5mC]*e[5mC]*eA; antisense) [compound 547071] | 27%
7 | 547734 (eG*eT*eA*eG*eG*dA*dT*dT*dG*dG*dT*dG*dG*dT*dG*eG*eG*eA*eT*eT; antisense) [compound 547734] | 14%
8 | 547744 (eT*eG*eG*eT*eG*dG*dT*dG*dG*dG*dA*dT*dT*dG*dG*eT*eG*eG*e[5mC]*eG; antisense) [compound 547744] | 65%
9 | 547011 (eG*eG*e[5mC]*eA*eG*dG*dA*dT*dT*dG*dG*dT*dG*dG*dT*eG*eG*eA*eA*eT; antisense) [compound 547011] | 22%
10 | 547768 (antisense eT*eT*eG*e[5mC]*e[5mC]*d[5mC]*dT*d[5mC]*dA*d[5mC]*dA*d[5mC]*dA*dT*dT*e[5mC]*eG*eA*eA*eT) [compound 547768] | 0%
11 | 547742 (eA*eT*e[5mC]*eG*eG*dT*dG*dG*dT*dG*dG*dG*dA*dT*dT*eG*eG*eT*e[5mC]*eG; antisense) [compound 547742] | 57%

same assay, conditions: HepaRG cells, electroporation with 5,000 nM antisense oligonucleotide, approximately 24 hours, PKK mRNA by RT-PCR (RTS3454), relative to untreated control cells; Table 5 experiment

Row | Substance | % inhibition
12 | 547291 (antisense eA*eT*eG*eG*eA*dA*dG*d[5mC]*dT*dA*d[5mC]*dA*dT*d[5mC]*d[5mC]*e[5mC]*e[5mC]*eA*e[5mC]*e[5mC]) [compound 547291] | 74%
13 | 547287 (antisense eG*eT*e[5mC]*eA*eG*dA*d[5mC]*dA*dT*d[5mC]*d[5mC]*dA*d[5mC]*dA*dG*eG*eA*eA*eA*e[5mC]) [compound 547287] | 69%
14 | 547285 (antisense eA*e[5mC]*eT*eG*eT*dA*dG*d[5mC]*dA*dA*dA*d[5mC]*dA*dA*dG*eG*eA*eA*eA*eT) [compound 547285] | 51%

same assay, conditions: HepaRG cells, electroporation with 5,000 nM antisense oligonucleotide, approximately 24 hours, PKK mRNA by RT-PCR (RTS3454), relative to untreated control cells; Table 6 experiment

Row | Substance | % inhibition
15 | 546211 (antisense eG*eG*e[5mC]*eA*eA*d[5mC]*d[5mC]*dA*dA*dT*dT*dT*d[5mC]*dT*dG*eA*eA*eA*eG*eG) [compound 546211] | 42%
16 | 547315 (antisense eA*eA*e[5mC]*eT*eG*d[5mC]*dA*d[5mC]*d[5mC]*dT*dG*dT*dT*d[5mC]*dG*eA*eT*eG*eT*eA) [compound 547315] | 50%
17 | 547324 (antisense e[5mC]*eA*eT*eT*eG*d[5mC]*dT*dT*d[5mC]*dA*dA*dG*dG*dA*dA*eT*eG*eT*e[5mC]*e[5mC]) [compound 547324] | 76%
18 | 546175 (antisense e[5mC]*eT*eG*e[5mC]*eA*d[5mC]*d[5mC]*dT*dG*dT*dT*d[5mC]*dG*dA*dT*eG*eT*eA*e[5mC]*eT) [compound 546175] | 78%

same assay, conditions: HepaRG cells, electroporation, 5,000 nM antisense oligonucleotide, approx. 24 hours, primer probe set RTS3454, relative to untreated control cells; Table 11

Row | Substance | % inhibition
19 | 547492 (antisense e[5mC]*eA*eG*eT*e[5mC]*d[5mC]*dA*dT*dG*dT*dA*d[5mC]*dT*d[5mC]*dA*eG*e[5mC]*eG*eA*e[5mC]) [compound 547492] | 62%
20 | 546356 (antisense eT*e[5mC]*e[5mC]*eA*eG*dT*d[5mC]*d[5mC]*dA*dT*dG*dT*dA*d[5mC]*dT*e[5mC]*eA*eG*e[5mC]*eG) [compound 546356] | 60%
21 | 546388 (e[5mC]*eT*eG*eA*eA*dA*dG*d[5mC]*dG*dG*dG*d[5mC]*dT*dT*d[5mC]*eA*eG*e[5mC]*e[5mC]*eA; antisense) [compound 546388] | 71%
22 | 546389 (e[5mC]*eG*eT*eG*e[5mC]*dT*dG*dA*dA*dA*dG*d[5mC]*dG*dG*dG*e[5mC]*eT*eT*e[5mC]*eA; antisense) [compound 546389] | 71%

same assay, conditions: HepaRG cells, electroporation, 5,000 nM antisense oligonucleotide, approx. 24 hours, primer probe set RTS3454, relative to untreated control cells; Table 12

Row | Substance | % inhibition
23 | 546418 (eA*eT*eG*eT*eG*dG*d[5mC]*dA*d[5mC]*dT*dG*d[5mC]*dA*dG*dG*e[5mC]*eA*eA*eT*eA; antisense) [compound 546418] | 72%
24 | 546496 (eA*eT*eG*e[5mC]*eA*dT*dA*d[5mC]*dT*d[5mC]*dG*d[5mC]*d[5mC]*dT*dT*eT*eG*eT*eG*eA; antisense) [compound 546496] | 54%
25 | 546719 (e[5mC]*e[5mC]*e[5mC]*e[5mC]*e[5mC]*dA*dT*dG*dT*d[5mC]*d[5mC]*dA*dT*dG*dG*eA*e[5mC]*eT*eT*eT; antisense) [compound 546719] | 55%

same assay, conditions: Table 7; HepaRG cells, electroporation with 5,000 nM antisense oligonucleotide, approx. 24 hours; PKK mRNA by RT-PCR (RTS3454), relative to untreated control cells

Row | Substance | % inhibition
26 | 546239 (eG*eT*eT*e[5mC]*eT*dT*dT*dT*dG*d[5mC]*dA*dG*dG*dT*dT*eA*eA*eA*eA*eG; antisense) [compound 546239] | 47%
27 | 546242 (eG*eG*eG*eT*eT*d[5mC]*dA*dG*dG*dT*dA*dA*dA*dG*dT*eT*e[5mC]*eT*eT*eT; antisense) [compound 546242] | 8%
28 | 547367 (eA*eT*e[5mC]*eT*eG*dG*dA*dG*dT*dG*dA*dG*dA*dA*d[5mC]*e[5mC]*e[5mC]*eT*eG*eG; antisense) [compound 547367] | 76%
29 | 546250 (e[5mC]*eA*eT*eT*e[5mC]*dA*dA*dT*dT*d[5mC]*dT*dT*d[5mC]*dT*d[5mC]*e[5mC]*eT*e[5mC]*e[5mC]*eA; antisense) [compound 546250] | 65%
30 | 547404 (eA*eG*eT*e[5mC]*eA*dA*d[5mC]*dT*d[5mC]*d[5mC]*d[5mC]*dG*dG*dG*dT*eA*eA*eA*eT*eT; antisense) [compound 547404] | 64%

same assay, conditions: Table 8; HepaRG cells, electroporation with 5,000 nM antisense oligonucleotide, approx. 24 hours; PKK mRNA by RT-PCR (RTS3454), relative to untreated control cells

Row | Substance | % inhibition
31 | 547436 (antisense e[5mC]*eT*e[5mC]*e[5mC]*e[5mC]*d[5mC]*dA*dA*dG*dA*dA*dG*dA*dG*dT*eT*eT*eG*eT*eT) [compound 547436] | 0%
32 | 546259 (eA*e[5mC]*eT*eG*eA*d[5mC]*dA*dG*d[5mC]*dG*dA*dA*dT*d[5mC]*dA*eT*e[5mC]*eT*eT*eT; antisense) [compound 546259] | 86%
33 | 546265 (eG*eT*e[5mC]*eT*eT*d[5mC]*dT*dG*dG*dG*dA*dG*dT*dA*dA*eA*eG*eA*eA*eT; antisense) [compound 546265] | 65%

same assay, conditions: Table 9 experiment; HepaRG cells, 20,000 cells per well, electroporation with 5,000 nM antisense oligonucleotide, approx. 24 hours; PKK mRNA by RT-PCR (RTS3454), relative to untreated control cells

Row | Substance | % inhibition
34 | 546318 (antisense eA*eT*eT*e[5mC]*eA*dA*dA*dG*dG*dA*dG*d[5mC]*d[5mC]*dT*dG*eG*eA*eG*eT*eT) [compound 546318] | 47%
35 | 546320 (antisense eG*eG*eT*eA*eG*dG*d[5mC]*dA*dT*dA*dT*dT*dG*dG*dT*eT*eT*eT*eT*eG) [compound 546320] | 72%

same assay, conditions: Table 10 experiment; HepaRG cells, 20,000 cells per well, electroporation with 5,000 nM antisense oligonucleotide, approx. 24 hours; PKK mRNA by RT-PCR (RTS3454), relative to untreated control cells

Row | Substance | % inhibition
36 | 546318 (antisense eA*eT*eT*e[5mC]*eA*dA*dA*dG*dG*dA*dG*d[5mC]*d[5mC]*dT*dG*eG*eA*eG*eT*eT) [compound 546318] | 46%
37 | 546320 (antisense eG*eG*eT*eA*eG*dG*d[5mC]*dA*dT*dA*dT*dT*dG*dG*dT*eT*eT*eT*eT*eG) [compound 546320] | 69%

same assay, conditions: Table 13; human PKK mRNA in HepaRG cells; 5-10-5 gapmers

Row | Substance | % inhibition
38 | 546830 (eT*eA*eA*e[5mC]*eA*dG*dT*dA*dT*d[5mC]*dA*d[5mC]*dT*dG*dT*eA*e[5mC]*eT*eA*eG; antisense) [compound 546830] | 78%

same assay, conditions: human PKK mRNA in HepaRG cells; 5-10-5 gapmers; Table 14

Row | Substance | % inhibition
39 | 547586 (eT*eA*eT*eA*eA*d[5mC]*dA*dG*dT*dA*dT*d[5mC]*dA*d[5mC]*dT*eG*eT*e[5mC]*e[5mC]*eT; antisense) [compound 547586] | 82%
40 | 546865 (eT*eA*eT*eA*eA*d[5mC]*dT*dA*dT*dA*dA*d[5mC]*dA*dA*dT*eA*eT*e[5mC]*eA*e[5mC]; antisense) [compound 546865] | 0%
41 | 547610 (antisense eT*eG*eT*eA*eA*d[5mC]*dA*dG*dT*dA*dT*d[5mC]*dA*d[5mC]*dT*eG*eT*eA*e[5mC]*eT) [compound 547610] | 45%
42 | 547624 (antisense eA*eT*eG*eT*e[5mC]*dA*d[5mC]*dT*dG*dT*dA*d[5mC]*d[5mC]*dT*dA*eT*eA*eA*e[5mC]*eT) [compound 547624] | 64%

same assay, conditions: human PKK mRNA, HepaRG cells; 5-10-5 motif oligonucleotides targeting SEQ ID NO: 1 and 10

Row | Substance | % inhibition
43 | 547659 (eA*e[5mC]*eT*eA*eT*dA*dA*d[5mC]*dA*dG*dT*dA*dT*d[5mC]*dA*e[5mC]*e[5mC]*eG*eT*eA; antisense) [compound 547659] | 80%
44 | 547653 (eA*eT*e[5mC]*eA*e[5mC]*dT*dG*dT*dA*d[5mC]*d[5mC]*dT*dA*dT*dA*eA*e[5mC]*eA*eG*eT; antisense) [compound 547653] | 57%
